ChEMBL document CHEMBL5108005, “Rational design of a trypanocidal peptide derived from Dinoponera quadriceps venom” (Eur J Med Chem, 2022)
Activity calls are given as the source filed them. No cut-off for these calls is given here.

How the values were obtained:
[1] = Cytotoxicity against monkey LLC-MK2 cells assessed as reduction in cell viability incubated for 24 hrs by MTT assay; type: toxicity, cell-based; details: Macaca mulatta (monkey)
[2] = Selectivity index, ratio of EC50 for Cytotoxicity against monkey LLC-MK2 cells to EC50 for antitrypanosomal activity against Trypanosoma cruzi Y trypomastigotes infected in monkey LLC-MK2 cells; type: toxicity, cell-based; details: read-out: Ratio EC50
Trypanosoma cruzi [3] = assay: Antitrypanosomal activity against Trypanosoma cruzi Y trypomastigotes infected in monkey LLC-MK2 cells assessed as reduction in cell death inducing capability incubated for 24 hrs by hemocytometer chamber based analysis; type: functional, organism-based; details: LLC-MK2, 24 h
Trypanosoma cruzi [4] = assay: (§1) Antitrypanosomal activity against Trypanosoma cruzi Y amastigotes infected in monkey LLC-MK2 cells assessed as reduction in reduction in amastigotes per 100 cells measured after 24 hrs by Giemsa staining based analysis; type: functional, organism-based; details: LLC-MK2, 24 h
[5] = Cytotoxicity against monkey LLC-MK2 cells assessed as reduction in cell viability incubated for 48 hrs by MTT assay; type: toxicity, cell-based; details: Macaca mulatta (monkey)
[6] = as §1, with “Selectivity index, ratio of EC50 for Cytotoxicity against monkey LLC-MK2 cells to EC50 for antitrypanosomal” for “Antitrypanosomal”; type: toxicity, cell-based; details: read-out: Ratio EC50
Trypanosoma cruzi [7] = assay: Induction of cell death in Trypanosoma cruzi Y epimastigotes assessed as early apoptotic cells at 7.2 uM incubated for 24 hrs by Annexin V/7-AAD staining based flow cytometric analysis (reference value: 0.11 %); type: functional
Trypanosoma cruzi [8] = assay: Induction of cell death in Trypanosoma cruzi Y epimastigotes assessed as live cells at 7.2 uM incubated for 24 hrs by Annexin V/7-AAD staining based flow cytometric analysis (reference value: 98.6 %); type: functional
Trypanosoma cruzi [9] = assay: Induction of cell death in Trypanosoma cruzi Y epimastigotes assessed as late apoptotic cells at 7.2 uM incubated for 24 hrs by Annexin V/7-AAD staining based flow cytometric analysis (reference value: 0.12 %); type: functional
[10] = as §1, with “Selectivity index, ratio of EC50 for Cytotoxicity against monkey LLC-MK2 cells to EC50 for antitrypanosomal” for “Antitrypanosomal”, “48” for “24”; type: toxicity, cell-based; details: read-out: Ratio EC50
Trypanosoma cruzi [11] = assay: Antitrypanosomal activity against Trypanosoma cruzi Y amastigotes infected in monkey LLC-MK2 cells assessed as reduction in reduction in amastigotes per 100 cells measured after 48 hrs by Giemsa staining based analysis; type: functional, organism-based; details: LLC-MK2, 48 h
Trypanosoma cruzi [12] = assay: Induction of membrane damage in Trypanosoma cruzi Y epimastigotes at EC50 measured after 12 hrs by SEM analysis; type: organism-based; details: Cell membrane
Trypanosoma cruzi [13] = assay: Induction of mitochondrial membrane potential loss in Trypanosoma cruzi Y epimastigotes at 7.2 uM incubated for 24 hrs by Rhodamine 123 staining based flow cytometric analysis relative to control; type: functional
Trypanosoma cruzi [14] = assay: Induction of cell death in Trypanosoma cruzi Y epimastigotes assessed as dead cells at 7.2 uM incubated for 24 hrs by Annexin V/7-AAD staining based flow cytometric analysis (reference value: 1.13 %); type: functional
Trypanosoma cruzi [15] = assay: Antitrypanosomal activity against Trypanosoma cruzi Y epimastigotes assessed as parasite growth inhibition measured after 48 hrs by hemocytometer chamber based analysis; type: functional, organism-based
Trypanosoma cruzi [16] = assay: Antitrypanosomal activity against Trypanosoma cruzi Y epimastigotes assessed as parasite growth inhibition measured after 72 hrs by hemocytometer chamber based analysis; type: functional, organism-based
Trypanosoma cruzi [17] = assay: Induction of oxidative stress in Trypanosoma cruzi Y epimastigotes assessed as increase in ROS formation at 7.2 uM incubated for 24 hrs by DCFH-DA staining based analysis relative to control; type: functional
Trypanosoma cruzi [18] = assay: Antitrypanosomal activity against Trypanosoma cruzi Y epimastigotes assessed as parasite growth inhibition measured after 24 hrs by hemocytometer chamber based analysis; type: functional, organism-based
Trypanosoma cruzi [19] = assay: Induction of cell death in Trypanosoma cruzi Y epimastigotes assessed as live cells at 13.5 uM incubated for 24 hrs by Annexin V/7-AAD staining based flow cytometric analysis (reference value: 98.6 %); type: functional
Trypanosoma cruzi [20] = assay: Induction of cell death in Trypanosoma cruzi Y epimastigotes assessed as late apoptotic cells at 13.5 uM incubated for 24 hrs by Annexin V/7-AAD staining based flow cytometric analysis (reference value: 0.12 %); type: functional
Trypanosoma cruzi [21] = assay: Induction of oxidative stress in Trypanosoma cruzi Y epimastigotes assessed as increase in ROS formation at 13.5 uM incubated for 24 hrs by DCFH-DA staining based analysis relative to control; type: functional
Trypanosoma cruzi [22] = assay: Induction of cell death in Trypanosoma cruzi Y epimastigotes assessed as dead cells at 13.5 uM incubated for 24 hrs by Annexin V/7-AAD staining based flow cytometric analysis (reference value: 1.13 %); type: functional
Trypanosoma cruzi [23] = assay: Induction of cell death in Trypanosoma cruzi Y epimastigotes assessed as early apoptotic cells at 13.5 uM incubated for 24 hrs by Annexin V/7-AAD staining based flow cytometric analysis (reference value: 0.11 %); type: functional
Trypanosoma cruzi [24] = assay: Induction of cell death in Trypanosoma cruzi Y epimastigotes assessed as late apoptotic cells at 125 uM incubated for 24 hrs by Annexin V/7-AAD staining based flow cytometric analysis (reference value: 0.12 %); type: functional
Trypanosoma cruzi [25] = assay: Induction of cell death in Trypanosoma cruzi Y epimastigotes assessed as early apoptotic cells at 125 uM incubated for 24 hrs by Annexin V/7-AAD staining based flow cytometric analysis (reference value: 0.11 %); type: functional
Trypanosoma cruzi [26] = assay: Induction of cell death in Trypanosoma cruzi Y epimastigotes assessed as live cells at 125 uM incubated for 24 hrs by Annexin V/7-AAD staining based flow cytometric analysis (reference value: 98.6 %); type: functional
Trypanosoma cruzi [27] = assay: Induction of mitochondrial membrane potential loss in Trypanosoma cruzi Y epimastigotes at 125 uM incubated for 24 hrs by Rhodamine 123 staining based flow cytometric analysis relative to control; type: functional
Trypanosoma cruzi [28] = assay: Induction of cell death in Trypanosoma cruzi Y epimastigotes assessed as dead cells at 125 uM incubated for 24 hrs by Annexin V/7-AAD staining based flow cytometric analysis (reference value: 1.13 %); type: functional
Trypanosoma cruzi [29] = assay: Antitrypanosomal activity against Trypanosoma cruzi Y trypomastigotes infected in monkey LLC-MK2 cells assessed as reduction in cell death inducing capability incubated for 24 hrs by Neubauer chamber based analysis; type: functional, organism-based; details: LLC-MK2, 24 h

Compound | EC50 at 24 h [1] | selectivity ratio [2] | EC50 (Trypanosoma cruzi [3]) | EC50 (Trypanosoma cruzi [15]) | EC50 (Trypanosoma cruzi [16]) | EC50 (Trypanosoma cruzi [18]) | other results
H-FWGKLAKWALKAIPA-OH | 60 µM | 58.2 | 1.03 µM |  |  |  | 
H-AIPAAMGMKQNK-OH | 43.1 µM | 72.9 | 0.59 µM | 9.7 µM | 8.7 µM | 7.2 µM | EC50 (Trypanosoma cruzi [4]): 1.32 µM; EC50 at 48 h [5]: 35.8 µM; selectivity ratio at 24 h [6]: 32.6; Activity (Trypanosoma cruzi [7]): 1.13%; Activity (Trypanosoma cruzi [8]): 85.36%; Activity (Trypanosoma cruzi [9]): 1.09%; selectivity ratio at 48 h [10]: 96.7; EC50 (Trypanosoma cruzi [11]): 0.37 µM; Activity (Trypanosoma cruzi [12]): Active; Activity (Trypanosoma cruzi [13]): 65%; Activity (Trypanosoma cruzi [14]): 12.42%; Activity (Trypanosoma cruzi [17]): 40%
H-FWGTLAKWARKAIPA-OH | 25.1 µM | 7.5 | 3.31 µM |  |  |  | 
H-FWGTLAKWAKKAIPA-OH | 97 µM |  | 1.09 µM |  |  |  | 
H-FWGTLARWALKAIPA-OH | 55 µM | 10.8 | 5.1 µM |  |  |  | 
H-FWKTLAKWALKAIPA-OH | 73.4 µM | 85.3 | 0.86 µM | 16.8 µM | 19.3 µM | 13.5 µM | EC50 (Trypanosoma cruzi [4]): 0.91 µM; EC50 at 48 h [5]: 43.9 µM; selectivity ratio at 24 h [6]: 80.7; Activity (Trypanosoma cruzi [19]): 74.1%; selectivity ratio at 48 h [10]: 157; EC50 (Trypanosoma cruzi [11]): 0.28 µM; Activity (Trypanosoma cruzi [20]): 1.04%; Activity (Trypanosoma cruzi [12]): Active; Activity (Trypanosoma cruzi [21]): 58%; Activity (Trypanosoma cruzi [22]): 25.06%; Activity (Trypanosoma cruzi [23]): 0.01%
H-FWRTLAKWALKAIPA-OH | 13 µM | 18.8 | 0.69 µM |  |  |  | 
O=C(Cn1ccnc1[N+](=O)[O-])NCc1ccccc1 [BENZNIDAZOLE] | 503 µM | 3.11 | 161 µM | 37.4 µM | 22.1 µM | 115 µM | Activity (Trypanosoma cruzi [24]): 1.01%; Activity (Trypanosoma cruzi [25]): 0.06%; Activity (Trypanosoma cruzi [26]): 93.22%; Activity (Trypanosoma cruzi [27]): 70%; Activity (Trypanosoma cruzi [28]): 5.71%
H-FWGTLAKWALKAIPA-OH | > 50 µM | < 50 | > 50 µM |  |  |  | 
H-FWGTLAKWALKAIPAAMGMKQNK-OH | 25.7 µM | 80.3 |  | 3.6 µM | 2.4 µM | 4.7 µM | EC50 (Trypanosoma cruzi [29]): 0.32 µM
H-GTLAKWALKAIPA-OH | 189 µM | 21.6 | 8.76 µM |  |  |  | 
H-FWGRLAKWALKAIPA-OH | 9.6 µM | 8.8 | 1.09 µM |  |  |  | 
H-FWGTLAKWALRAIPA-OH | 38.5 µM | 24.7 | 1.54 µM |  |  |  | 
